Results as given in US20070155841A1, “Preventive agent for carcinogenesis of liver cancer containing quinone-based compound as active ingredient” (Eisai Co., Ltd., priority 2004, published 2007).

Tests used:
[1] = test system: liver cancer (hepatocellular carcinoma) in female virus cirrhosis patients; experiment: Randomized clinical trial with 7-year follow-up: development of liver cancer in virus cirrhosis patients; assay type: in vivo, human; details: for Adjusted odds ratio for development of HCC (treatment group to control group): multivariate analysis adjusted for age, ALT, albumin, total bilirubin, platelet count, AFP, history of IFN-α, 95% CI 0.016-0.992, P 0.0491; for Crude odds ratio for development of HCC (treatment group to control group): univariate analysis, 95% CI 0.042-0.913, P 0.038
Experimental: A primary test was conducted targeting 50 female virus cirrhosis patients.
The diagnosis of cirrhosis was based on histological examination of liver specimens obtained by laparoscopy or needle biopsy performed under ultrasonic guidance.
Half were randomly assigned to receive 45 mg/day of vitamin K2 (Glakay;
Eisai Co., Tokyo, Japan) p.o., and half were assigned to the control group. Randomization was performed by placing the treatment assignments in sealed envelopes.
At the end of the first study, 21 patients in the treatment group and 19 patients in the control group agreed to participate in a longer trial. These patients were infected with the hepatitis C virus except for one patient in each group that had hepatitis B.
The clinical trial was conducted in accordance with the Helsinki Declaration and was approved by our ethics committee.
Statistical analysis was carried out with SAS software (version 8.12). The χ2 test was used to assess the homogeneity of groups. Cumulative incidences were plotted by the Kaplan-Meier method, and statistical significance of differences was analyzed by the log-rank test. Cox's regression analysis was used for univariate and multivariate analysis. In both studies, the two groups were similar with respect to age, the Child-Pugh stage, and the other clinical findings (See Table 1).

[2] = cited from earlier work
[3] = test system: leukemia cells; details: in vitro, Patent Literature 1; cited from earlier work
[4] = test system: liver cancer which has been treated; details: Non-Patent Literature 6 and 7, cited from earlier work
[5] = test system: tumor cells; details: Non-Patent Literature 5; cited from earlier work

| Compound | Adjusted odds ratio for development of HCC (treatment group to control group) ([1]; listed as VK2) | Adjusted odds ratio for development of HCC (treatment group to control group) ([1]; listed as vitamin K2) | cumulative incidence percentage of liver cancer patients versus control group ([1]; treatment group, 45 mg/day p.o., 7-year follow-up, Kaplan-Meier (FIG. 1)) | patients who developed liver cancer ([1]; treatment group, 45 mg/day p.o., 7-year follow-up, control group 9 of 19) | Crude odds ratio for development of HCC (treatment group to control group) ([1]; listed as VK2) | Crude odds ratio for development of HCC (treatment group to control group) ([1]; listed as vitamin K2) | solubility in water [2] | differentiation induction activity [3] | recurrence of treated liver cancer ([4]; patients who already had cancer) | survival percentage ([4]; patients with treated liver cancer) | induction of apoptosis [5] |
| --- | --- | --- | --- | --- | --- | --- | --- | --- | --- | --- | --- |
| CC(C)=CCC/C(C)=C/CC/C(C)=C/CC/C(C)=C/CC1=C(C)C(=O)c2ccccc2C1=O [menatetrenone, 2-methyl-3-tetraprenyl-1,4-naphthoquinone] | 0.126 | 0.126 (0.016 to 0.992) | much smaller than that in the control group | 2 of 21 | 0.195 | 0.195 (from 0.042 to 0.913) | nearly insoluble in water | differentiation induction activity in leukemia cells | suppresses recurrence of liver cancer | heightens the survival percentage |  |
| CC(C)=CCC/C(C)=C/CC/C(C)=C/CC/C(C)=C/CO [geranylgeraniol] |  |  |  |  |  |  |  |  |  |  | potent inducer of apoptosis in tumor cells |
